In data set [1] the test system is nNav1.5 mRNA. In words: Real-time RT-PCR of nNav1.5 mRNA levels in SW620 cells. It counts as cell-based, human. To be noted: for decrease in nNav1.5 mRNA levels in comparison to c-siRNA: 40 nM siRNA, 90 h after transfection. How it is done: Steps for polymerase chain reactions (PCRs) were as described before (Fraser et al., 2005). Conventional PCRs were performed using HotStarTaq Plus technology (Qiagen Ltd, Manchester, UK) in a Primus PCR machine (MWG-Biotech, Eurofins Genomics, Ebersberg, Germany). Quantitative real-time PCRs were carried out utilising SYBR Green technology (Qiagen) and a DNA Engine Opticon 2 system (MJ Research, Bio-Rad Laboratories Ltd, Hamel Hempstead, UK). Duplicate reactions on each sample were carried out simultaneously for target and reference genes. Control PCRs were carried out routinely by including non-target (-RT) reactions and monitoring melting curves. The primer pairs used were as follows:
The mRNA levels were quantified using the comparative 2^−ΔΔC(t) method (Livak and Schmittgen, 2001).
(§1) Lipofectamine 2000 reagent (Invitrogen) was used as the transfection agent and the protocol was applied according to the manufacturer's instructions. […] Electrophysiological recordings of siRNA-treated cells were also performed in parallel at given time points and in random order. For these treatments, recordings were made from 19-37 cells from ≥4 different transfections with matching controls.
(In general: Real-time PCR tracks product formation cycle by cycle.)

Data set [2] concerns SW620 cells. In words: Matrigel invasion assay. Type of data set: cell-based, human. To be noted: for reduction in number of invaded cells compared to c-siRNA: 40 nM siRNA, invasion over 48 h. The method, then: For hypoxia, cells were maintained as above but in 1% O2 for up to 120 h in a dedicated incubator (Micro Galaxy, RS Biotech Laboratory Equipment Ltd, Irvine, UK).
as §1
Thus, (i) insert filters (with 8 μm pores) were coated with 50 µl of 0.21 mg/ml Matrigel (BD Biosciences, Bedford, MA, USA); (ii) the chemotactic gradient was 0.1-10% FBS; and (iii) the cells were serum-starved for 24 hours and (iv) 10^5 cells were seeded onto each filter. After 48 hours, the insert was swabbed and then stained with crystal violet. The invaded cells in 12 non-overlapping fields of view were counted under ×400 magnification. […] Each treatment condition was tested 5-8 times.

In data set [3] the test system is SW620 cells. In words: Cell viability (trypan blue exclusion) and proliferation (MTT). Type of data set: cell-based, human. How it is done:
Cellular viability (toxicity) and proliferation were quantified as described previously (Fraser et al., 1999, 2003b; Grimes et al., 1995). Briefly, cells were seeded into 35 mm plates at 3.5×10^4/plate (for toxicity) or 24-well plates at 2× 10^4/well (for proliferation) and allowed to settle overnight. The cells were incubated under control conditions or treated with the drug, with a change of medium every 24 h. Cell viability was determined by trypan blue exclusion assay. Proliferation was determined by the colorimetric 3-(4,5-dimethylthiazol-2-yl)-2,5-diphenyltetrazolium bromide (MTT) assay. A ‘standard curve’ was constructed showing linearity over the experimental range. Each biological repeat (treatment and control) was performed in triplicate.

The test system of data set [4] is nNav1.5 protein. In words: Western blot of nNav1.5 protein expression (NESO-pAb). Type of data set: cell-based, human. The method, then: Cells were washed with PBS containing 0.5 mM NaF, 0.1 mM Na3 VO4 (Sigma-Aldrich) and lysed in RIPA buffer (0.5M Tris-HCl, pH 7.4, 1.5M NaCl, 2.5% deoxycholic acid, 10% NP-40, 10 mM EDTA) (Merck-Millipore Ltd, Watford, UK) supplemented with an EDTA-free protease inhibitor cocktail (Roche Products Ltd, Welwyn Garden City, UK). Then, cells were vortexed for 30 mins at 4° C. The lysate was centrifuged (15,000 g) at 4° C. and supernatant collected for measurement of the protein concentration by a standard Bradford assay (Bio-Rad protein assay, Bio-Rad). After 15 minutes at 70° C. in SDS loading buffer (62.5 mM Tris-HCl, 20% glycerol, 2% SDS, 100 mM DTT, 0.0025% bromphenol blue, 10% B-mercaptoethanol; pH 6.8), 50 μg of protein per lane was separated by 7.5% SDS-polyacrylamide gel electrophoresis and electroblotted onto 0.45 μm nitrocellulose membrane (Thermo Scientific). Equal protein loading was controlled by Ponceau S staining (Sigma-Aldrich). Membranes were ‘blocked’ with 5% bovine serum albumin (BSA) in TBS+0.1% Tween-20 for 1 hour and probed for 20 hours with the following primary antibodies (diluted in TBS+0.1% Tween 20+1% BSA): i) NESO-pAb antibody for nNav1.5 (1 μl/ml); and (ii) anti-actinin antibody (1 μl/ml) as loading control (Sigma-Aldrich). […]
(In general: Immunoblotting shows a protein as a band on a membrane.)

The test system of data set [5] is Nav1.5 splice variant (neonatal and adult). The following applies: cited from earlier work.
Data set [6] addresses persistent current, INaP, of VGSC, especially Nav1.5 (Canis lupus familiaris, UniProt Q865W3). To be noted: Antzelevitch et al., 2004; read-out: IC50 for block of hypoxia-induced persistent current INaP; cited from earlier work.
Data set [7] has as its system VGSC currents (nNav1.5 / aNav1.5) in SW620 cells. In words: Whole-cell patch-clamp recording of VGSC currents in siRNA-transfected SW620 cells. Type of data set: cell-based, human. The following applies: for proportion of cells demonstrating VGSC currents / peak VGSC current density: SW620 cells after siRNA transfection; for peak VGSC current density: median (25%-75% interquartile range); for Activation V1/2 (half-activation voltage) / Activation k (activation slope factor) / Inactivation V1/2 (half-inactivation voltage) / Inactivation k (inactivation slope factor) / Tinactivation (inactivation time constant) / Tpeak (time to peak): SW620 cells, 40 nM siRNA, 96 h transfection, 24 h serum starvation, mean ± SEM.
Source text: Details of the patch pipettes, solutions, and the whole-cell recording protocols were as described previously (e.g. Laniado et al., 1997; 2001; Fraser et al., 2003a; Grimes et al, 1995). In brief, patch pipettes (tip resistances, ˜5 M Ω) were filled with a solution designed to block the outward K^+ currents; the composition was as follows (in mM): NaCl 5, CsCl 145, MgCl2 2, CaCl2) 1, HEPES 10 and EGTA 11, adjusted to pH 7.4 with 1 M CsOH. The estimated intracellular free Ca^2+ concentration was ˜15 nM (Laniado et al., 2001). Whole-cell membrane currents were recorded from cells that appeared ‘isolated’ in culture, using an Axopatch 200B amplifier (Axon Instruments, CA, USA). Analogue signals were filtered at 10 kHz using a low-pass Bessel filter, and series resistance errors were compensated by >90%. Electrophysiological signals were sampled at 50 kHz and digitised using an interface (Digidata 1200). Data acquisition and analysis of whole-cell currents were performed using pClamp software (Axon Instruments). A holding potential of −100 mV was applied, unless indicated otherwise. Standard voltage-clamp protocols were used to study the electrophysiological properties of the VGSC currents. There was a noticeable decrease in current amplitude with time in culture, also apparent in immunocytochemistry (FIG. 7). All routine recordings were done 24 hours after (re) plating and 24 hours of serum starvation (to match the condition of the invasion assays).
Conductance-voltage relationships were determined using the equation:
[formula] • where G is the conductance; I the current amplitude; V the test pulse; and Vrev the theoretical Na^+ reversal potential. Normalized curves for voltage dependence of steady-state activation and inactivation were fitted to a Boltzmann function of the form:
[formula] • where Gmax is the maximal conductance; Vm is the membrane voltage; V1/2 is the voltage at which the current is half activated/inactivated, and k is the slope factor of voltage sensitivity. For the time course of recovery from inactivation, the data was plotted as a function of recovery time and fitted to the following single exponential equation:
[formula] • where I is normalized current, t is time, t is the time constant, A is the amplitude of the normalized current, and C is the asymptote. More details can be found in Onkal et al. (2008).
as §1
A general note: The patch-clamp technique gives a direct electrical read-out from membranes.

Where “and” joins values, the source holds several entries; their conditions need not be identical. Equal entries are not always repeated. Where two headings read alike, the source gives them in different places.

A word on the IC50: it is the point on the concentration scale where inhibition reaches its midpoint.

Sequence of persistent current, INaP, of VGSC, especially Nav1.5 (Q865W3 1-2013): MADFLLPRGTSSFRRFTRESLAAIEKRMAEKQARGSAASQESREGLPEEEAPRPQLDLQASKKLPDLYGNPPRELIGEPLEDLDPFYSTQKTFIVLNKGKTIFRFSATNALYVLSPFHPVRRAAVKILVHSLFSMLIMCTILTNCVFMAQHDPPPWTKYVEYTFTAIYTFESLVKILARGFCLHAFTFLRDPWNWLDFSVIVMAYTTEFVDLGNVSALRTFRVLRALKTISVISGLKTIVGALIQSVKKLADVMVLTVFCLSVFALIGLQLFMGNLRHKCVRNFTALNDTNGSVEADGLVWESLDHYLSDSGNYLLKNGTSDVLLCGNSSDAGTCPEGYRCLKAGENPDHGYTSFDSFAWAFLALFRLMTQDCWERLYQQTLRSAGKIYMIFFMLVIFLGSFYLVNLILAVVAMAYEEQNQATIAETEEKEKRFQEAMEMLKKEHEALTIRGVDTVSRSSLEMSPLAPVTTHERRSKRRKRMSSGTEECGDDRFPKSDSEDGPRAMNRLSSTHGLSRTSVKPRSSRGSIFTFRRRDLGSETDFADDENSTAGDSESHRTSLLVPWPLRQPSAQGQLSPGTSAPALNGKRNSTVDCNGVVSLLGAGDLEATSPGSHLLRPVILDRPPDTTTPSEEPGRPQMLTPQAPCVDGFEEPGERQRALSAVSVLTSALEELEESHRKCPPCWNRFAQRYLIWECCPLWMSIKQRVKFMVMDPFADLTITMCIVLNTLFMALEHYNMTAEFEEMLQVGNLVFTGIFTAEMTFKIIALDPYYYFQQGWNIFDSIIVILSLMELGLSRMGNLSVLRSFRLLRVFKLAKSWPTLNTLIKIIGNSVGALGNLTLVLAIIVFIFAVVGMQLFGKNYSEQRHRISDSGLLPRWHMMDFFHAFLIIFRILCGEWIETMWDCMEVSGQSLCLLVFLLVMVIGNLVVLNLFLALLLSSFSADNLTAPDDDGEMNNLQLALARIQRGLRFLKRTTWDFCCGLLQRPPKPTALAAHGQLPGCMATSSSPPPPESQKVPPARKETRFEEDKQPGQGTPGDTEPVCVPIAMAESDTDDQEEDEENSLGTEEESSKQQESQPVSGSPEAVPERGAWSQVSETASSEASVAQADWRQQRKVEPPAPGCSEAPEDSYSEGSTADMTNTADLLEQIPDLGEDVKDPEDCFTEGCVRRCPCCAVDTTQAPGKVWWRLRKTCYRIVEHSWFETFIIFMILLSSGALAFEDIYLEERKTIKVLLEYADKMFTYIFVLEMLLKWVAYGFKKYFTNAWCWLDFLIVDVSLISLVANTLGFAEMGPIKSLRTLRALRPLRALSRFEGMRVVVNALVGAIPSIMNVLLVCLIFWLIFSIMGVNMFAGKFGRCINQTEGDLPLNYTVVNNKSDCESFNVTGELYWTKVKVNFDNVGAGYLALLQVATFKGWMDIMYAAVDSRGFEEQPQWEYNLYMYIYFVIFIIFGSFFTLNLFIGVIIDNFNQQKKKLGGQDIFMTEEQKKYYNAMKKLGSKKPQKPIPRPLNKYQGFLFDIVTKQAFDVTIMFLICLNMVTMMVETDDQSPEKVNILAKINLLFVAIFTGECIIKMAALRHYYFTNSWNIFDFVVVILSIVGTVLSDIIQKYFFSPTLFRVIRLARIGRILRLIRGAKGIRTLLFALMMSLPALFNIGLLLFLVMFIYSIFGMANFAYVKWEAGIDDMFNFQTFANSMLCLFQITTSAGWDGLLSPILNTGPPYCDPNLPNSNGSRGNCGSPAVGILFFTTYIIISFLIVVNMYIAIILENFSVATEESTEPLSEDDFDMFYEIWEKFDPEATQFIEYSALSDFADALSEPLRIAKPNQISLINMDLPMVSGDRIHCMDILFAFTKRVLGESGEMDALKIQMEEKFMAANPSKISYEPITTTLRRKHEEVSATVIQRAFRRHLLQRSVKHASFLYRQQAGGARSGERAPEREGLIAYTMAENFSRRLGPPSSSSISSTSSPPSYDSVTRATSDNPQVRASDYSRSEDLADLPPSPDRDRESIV

Regarding `NC1=N[C@H](O)[C@H]2[C@H]3O[C@]4(O)O[C@@H]([C@@H](O)[C@@]2(N1)[C@@H]4O)[C@]3(O)CO` [TTX, Tetrodotoxin], in data set [1], the “effect on hypoxia-induced increase of nNav1.5 mRNA expression” value was “blocked this increase” and the “effect on nNav1.5 mRNA expression” value was “Lack of effect”. In addition, in data set [2], the “effect of TTX on invasiveness” value is “no effect”; the effect on invasiveness entry is “no effect”; the “reduction of invasiveness by TTX” value was 32% and 34%; the “reduction of invasiveness cf. hypoxia control” value is given as 45%. Further, the inhibition of invasiveness in data set [2] (20 µM) is on record as 37%. The effect on proliferation entry in data set [3] was “not affected”. The “effect on nNav1.5 protein expression” value in data set [4] is recorded as “no effect”. In addition, the “block of currents generated by either Nav1.5 splice variant” value in data set [5] is more than 80%.

Consider `COc1ccccc1OCC(O)CN1CCN(CC(=O)Nc2c(C)cccc2C)CC1` (stereo not drawn) [ranolazine], for which, in data set [1] (5 μM, hypoxia 1% O2 48 h, SW620 cells), the “effect on hypoxia-induced increase of nNav1.5 mRNA expression” value was “blocked this increase”. The “effect on nNav1.5 mRNA expression” value in data set [1] (5 μM, normoxia, SW620 cells) is “Lack of effect”. Besides, the “reduction in invasion cf. hypoxia control” value in data set [2] (5 μM, hypoxia (1% O2, 72 h), SW620 cells) is given as 37%. This compound gave a reduction in invasion in data set [2] (5 μM, normoxia, SW620 cells) of 9%. The “inhibition of invasion, dose dependence” value in data set [2] (1-10 μM, hypoxia, control/c-siRNA-treated SW620 cells) was “dose-dependent manner with two-fold difference over 1-10 μM”. The “effect on invasiveness in cells pre-treated with n3-siRNA” value in data set [2] (up to 10 μM, hypoxia, n3-siRNA pre-treated SW620 cells) was “no additional effect”. Also, in data set [3] (up to 10 µM, normoxia or hypoxia (not shown)), the effect on proliferation result was “not affected”. Further, in data set [4] (5 μM, normoxia and hypoxia, SW620 cells), the “effect on nNav1.5 protein expression” value is reported as “no effect”. In addition, the concentration for half-maximal inhibition (IC50) in data set [6] is 5.9 µM.

Turning to “AGGUAGUGUAAUCGCCUUG (listed as RNA, chemistry not given here) [c-siRNA, non-targeting control siRNA supplied by Eurofins]”, the effect on invasiveness result in data set [2] (SW620 cells, normoxia or hypoxia (1% O2, 72 h)) is listed as “no effect”.

Turning to CUAGGCAAUUUGUCGGCUC [n1-siRNA], the “decrease in nNav1.5 mRNA levels in comparison to c-siRNA” value (“decrease in nNav1.5 mRNA levels” below) in data set [1] (SW620 cells) was 50±12%. In addition, in data set [7], the “proportion of cells demonstrating VGSC currents” value (“proportion” for short) stood at 42% and the “peak VGSC current density” value is listed as 0.0 (0-3.1) pA/pF. The “reduction in number of invaded cells compared to c-siRNA” value (shortened to “reduction in number of invaded cells”) in data set [2] (SW620 cells, normoxia) was 64%.

Turning to GAGUCCUGAGAGCUCUAAA [n3-siRNA], the “decrease in nNav1.5 mRNA levels” value in data set [1] (SW620 cells) was found to be 32±10%. In data set [7], the “proportion” value worked out at 51%, the “peak VGSC current density” value was 1.0 (0-6.8) pA/pF, the “Activation V1/2 (half-activation voltage)” value is −24.7 ± 2.0 mV and the “Activation k (activation slope factor)” value was 6.1 ± 0.3 mV. In data set [7], the “Inactivation V1/2 (half-inactivation voltage)” value is −86.5 ± 1.2 mV, the “Inactivation k (inactivation slope factor)” value is on record as −5.0 ± 0.4 mV, the “Tinactivation (inactivation time constant)” value was determined as 0.80 ± 0.10 ms and the “Tpeak (time to peak)” value is reported as 0.66 ± 0.04 ms. The “reduction in number of invaded cells” value in data set [2] (SW620 cells, normoxia) was determined as 73%. In addition, the “hypoxia-induced increase in invasiveness” value in data set [2] (SW620 cells, hypoxia 1% O2 72 h, siRNA-treated) is given as “completely suppressed”.

For “GUCUCAGCCUUACGCACCU (listed as RNA, chemistry not given here) [a-siRNA, siRNA targeting 'adult' Nav1.5 (aNav1.5)]”, in data set [7], the “proportion” value was found to be 58%, the “peak VGSC current density” value was 3.5 (0-7.5) pA/pF, the “Activation V1/2 (half-activation voltage)” value is given as −28.1 ± 1.7 mV and the “Activation k (activation slope factor)” value turned out to be 6.7 ± 0.6 mV. Further, in data set [7], the “Inactivation V1/2 (half-inactivation voltage)” value is listed as −95.6 ± 2.1 mV, the “Inactivation k (inactivation slope factor)” value is reported as −6.7 ± 0.7 mV, the “Tinactivation (inactivation time constant)” value is reported as 1.35 ± 0.19 ms and the “Tpeak (time to peak)” value is 0.90 ± 0.06 ms. The “reduction in number of invaded cells” value in data set [2] (SW620 cells, normoxia) turned out to be 17%.

Regarding UAUCAUGGCGUAUGUAUCA [n2-siRNA], the “decrease in nNav1.5 mRNA levels” value in data set [1] (SW620 cells) is listed as 85±10%. Also, in data set [7], the “proportion” value is on record as 33% and the “peak VGSC current density” value is on record as 0.0 (0-2.4) pA/pF. In addition, the “reduction in number of invaded cells” value in data set [2] (SW620 cells, normoxia) is listed as 45%.
